Structures can show the parent of a compound that is named as a salt.
Tested on: mice
Assay: SmartCube in vivo neuropharmacological behavioral assay
Settings: for minimal effective dose: Mus musculus, ip, 0.25 h, dose having 50% or more total activity in SmartCube, i.p., read-out: MED (minimal effective dose); for AD: antidepressant (percent probability) / AG: analgesic (percent probability) / AP: antipsychotic (percent probability) / AX: anxiolytic (percent probability) / CE: cognitive enhancer (percent probability) / HA: hallucinogenic (percent probability) / MS: mood stabilizer (percent probability) / PS (percent probability) / SD: sedative hypnotic (percent probability) / SE: side effects (percent probability) / UN: uncharacterized CNS activity (percent probability) / XG: anxiogenic (percent probability): SmartCube, i.p. 15 min before test, result at the MED
Experimental: The compounds were evaluated for their CNS related properties (e.g., the treatment, prevention or diagnosis of CNS or CNS-related disorders and/or amelioration of symptoms) using neuropharmacological screening methods described in S. L. Roberts et al., Front. Neurosci. 2011, 5:103 (hereinafter referred to as “Roberts,” the contents of which are incorporated herein by reference in their entirety).
According to Roberts, intact systems are useful in detecting improvement in disease-relevant endpoints, because psychiatric diseases generally result from disorders of cell-cell communication or circuitry. The endpoints are typically behavioral in nature, often requiring human observation and interpretation. In order to test multiple compounds for behavioral effects relevant to neurological and psychiatric diseases and disorders, PsychoGenics, Inc. (Paramus, N.J. “PGI”) developed SmartCube®, an automated system in which behaviors of compound-treated mice are captured by digital video and analyzed with computer algorithms to facilitate testing of multiple compounds for behavioral effects relevant to psychiatric disease. (D. Brunner et al., Drug Discov. Today 2002, 7:S107-S112; Alexandrov et al., Eur. J. Pharmacol. 2015, 753:127-134; the contents of each of which are incorporated herein by reference in their entirety).
The SmartCube® system is described in Example 2.2 of U.S. Pat. No. 9,758,529 and Example 289 of WIPO Publication No. WO2018/023070, the contents of each of which are incorporated herein by reference in their entirety.
According to the present disclosure, compounds identified may be evaluated using the SmartCube® system. The results of such analysis correlate certain patterns or combinations of behaviors to CNS effects along a percent probability scale of 0-100 where zero (0) reflects the limit of quantitation (LOQ).
The compounds of the present disclosure were evaluated for their CNS related properties (e.g., the treatment, prevention or diagnosis of CNS or CNS-related disorders and/or amelioration of symptoms) using neuropharmacological screening methods described in S. L. Roberts et al., Front. Neurosci. 2011, 5:103 (hereinafter referred to as “Roberts,” the contents of which are incorporated herein by reference in their entirety).
The SmartCube® system described herein was utilized to compare the behavioral signature of a test compound to a database of behavioral signatures obtained using a large set of diverse reference compounds (including but not limited to antipsychotics, anxiolytics, antidepressants and bipolar disorder medicine), thereby predicting the neuropharmacological effects of a test compound by similarity to major classes of compounds. It produces an activity signature indicating the probability that the activity of the test compound at the administered dose matches a given class of neuropharmacological agents. The test compound is simultaneously compared against multiple classes of agents; thus, a separate probability is generated for each behavioral effect measured (such as but not limited to anxiolytic activity and analgesic activity).
The compounds of the present disclosure were dissolved in a mixture of Pharmasolve™ (N-methyl-2-pyrrolidone (NMP)) and were injected i.p. 15 min. before the behavioral test. For each compound, injections were administered at different dose levels (e.g., 0.3, 1, 3, 10 and 30 mg per kg (mpk)). A compound's minimal effective dose (MED; see Table 3) is a measure of the compound's potency. The MED was defined as the dose (in mpk) having 50% or more total activity in SmartCube®. For each behavioral effect measured, results at the MED are presented. CNS activities of the compounds were recorded (see Table 2). In Table 1, a key to the percent probabilities (probability ×100) for each behavioral effect (“X”) are defined provided, where LOQ is the limit of quantification.

Row | Compound | minimal effective dose [mg/kg] | AD: antidepressant (percent probability) | AG: analgesic (percent probability) | AP: antipsychotic (percent probability) | AX: anxiolytic (percent probability) | CE: cognitive enhancer (percent probability) | HA: hallucinogenic (percent probability) | MS: mood stabilizer (percent probability) | PS (percent probability) | SD: sedative hypnotic (percent probability) | SE: side effects (percent probability) | UN: uncharacterized CNS activity (percent probability) | XG: anxiogenic (percent probability)
1 | CCC(C)N1C2CCCC1c1ccccc12 (stereo not shown) [Compound 12, 12-(Butan-2-yl)-12-azatricyclo[6.3.1.0^2,7]dodeca-2,4,6-triene] | 1 to 10 | ++ (5% ≤ X < 25%) | + (LOQ ≤ X < 5%) | + (LOQ ≤ X < 5%) | ++ (5% ≤ X < 25%) | + (LOQ ≤ X < 5%) | + (LOQ ≤ X < 5%) | + (LOQ ≤ X < 5%) | + (LOQ ≤ X < 5%) | + (LOQ ≤ X < 5%) | + (LOQ ≤ X < 5%) | +++ (25% ≤ X < 50%) | + (LOQ ≤ X < 5%)
2 | CC(C)N1[C@@H]2C[C@@H](C)C[C@H]1c1ccccc12 [Compound 31, 10-Methyl-12-(propan-2-yl)-12-azatricyclo[6.3.1.0^2,7]dodeca-2,4,6-triene hydrochloride] | 1 to 10 | ++++ (50% ≤ X < 100%) | + (LOQ ≤ X < 5%) | + (LOQ ≤ X < 5%) | + (LOQ ≤ X < 5%) | + (LOQ ≤ X < 5%) | ++ (5% ≤ X < 25%) | + (LOQ ≤ X < 5%) | ++ (5% ≤ X < 25%) | + (LOQ ≤ X < 5%) | + (LOQ ≤ X < 5%) | + (LOQ ≤ X < 5%) | + (LOQ ≤ X < 5%)
3 | c1ccc(CCN2C3CCCC2c2ccccc23)cc1 [Compound 5, 12-(2-Phenylethyl)-12-azatricyclo[6.3.1.0^2,7]dodeca-2,4,6-triene] | 10 to 30 | ++ (5% ≤ X < 25%) | + (LOQ ≤ X < 5%) | ++ (5% ≤ X < 25%) | ++ (5% ≤ X < 25%) | + (LOQ ≤ X < 5%) | + (LOQ ≤ X < 5%) | + (LOQ ≤ X < 5%) | + (LOQ ≤ X < 5%) | + (LOQ ≤ X < 5%) | + (LOQ ≤ X < 5%) | +++ (25% ≤ X < 50%) | + (LOQ ≤ X < 5%)
4 | CC(CF)N1C2CCCC1c1ccccc12 (stereo not shown) [Compound 19, 12-(1-Fluoropropan-2-yl)-12-azatricyclo[6.3.1.0^2,7]dodeca-2,4,6-triene hydrochloride] | 10 to 30 | ++ (5% ≤ X < 25%) | + (LOQ ≤ X < 5%) | + (LOQ ≤ X < 5%) | ++++ (50% ≤ X < 100%) | + (LOQ ≤ X < 5%) | + (LOQ ≤ X < 5%) | + (LOQ ≤ X < 5%) | + (LOQ ≤ X < 5%) | + (LOQ ≤ X < 5%) | + (LOQ ≤ X < 5%) | + (LOQ ≤ X < 5%) | + (LOQ ≤ X < 5%)
5 | CC(C)N1C2CCC(F)C1c1ccccc12 (stereo not shown) [Compound 35, 9-Fluoro-12-(propan-2-yl)-12-azatricyclo[6.3.1.0^2,7]dodeca-2,4,6-triene hydrochloride] | > 30 | + (LOQ ≤ X < 5%) | ++ (5% ≤ X < 25%) | + (LOQ ≤ X < 5%) | ++ (5% ≤ X < 25%) | + (LOQ ≤ X < 5%) | + (LOQ ≤ X < 5%) | + (LOQ ≤ X < 5%) | + (LOQ ≤ X < 5%) | + (LOQ ≤ X < 5%) | + (LOQ ≤ X < 5%) | + (LOQ ≤ X < 5%) | + (LOQ ≤ X < 5%)
6 | CC(C)N1C2CCCC1c1ccccc12 [Compound 2, 12-(Propan-2-yl)-12-azatricyclo[6.3.1.0^2,7]dodeca-2,4,6-triene] | 1 to 10 | ++ (5% ≤ X < 25%) | ++ (5% ≤ X < 25%) | + (LOQ ≤ X < 5%) | + (LOQ ≤ X < 5%) | + (LOQ ≤ X < 5%) | + (LOQ ≤ X < 5%) | + (LOQ ≤ X < 5%) | + (LOQ ≤ X < 5%) | + (LOQ ≤ X < 5%) | + (LOQ ≤ X < 5%) | +++ (25% ≤ X < 50%) | + (LOQ ≤ X < 5%)
7 | CCC(CC)N1C2CCCC1c1ccccc12 [Compound 17, 12-(Pentan-3-yl)-12-azatricyclo[6.3.1.0^2,7]dodeca-2,4,6-trienehydrochloride] | 10 to 30 | ++ (5% ≤ X < 25%) | + (LOQ ≤ X < 5%) | + (LOQ ≤ X < 5%) | ++ (5% ≤ X < 25%) | + (LOQ ≤ X < 5%) | + (LOQ ≤ X < 5%) | + (LOQ ≤ X < 5%) | ++++ (50% ≤ X < 100%) | + (LOQ ≤ X < 5%) | + (LOQ ≤ X < 5%) | + (LOQ ≤ X < 5%) | + (LOQ ≤ X < 5%)
